The subject of assay [1] is CD8+ T cells (HLA-A*2402 donors). The assay can be described thus: In vitro CTL induction with peptide-pulsed DCs (positive donor number). In kind it is cell-based, human. Particulars: HLA-A*2402, 9-mer peptides derived from INHBB; positive/total donors. Put shortly:
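Autologous CD8+ T cells from HLA-A*2402 and/or A*0201 donors stimulated with MMC-inactivated monocyte-derived DCs pulsed with 20 μg/ml peptide, at 1:20 DC:T with IL-7, then IL-2 (20 IU/ml); restimulated days 7 and 14. CTL tested day 21 on peptide-pulsed A24-LCL or T2 cells; reported as positive/total donors.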

A further assay concerns peptide-pulsed T2 cells. The assay can be described thus: CTL line establishment, IFN-gamma ELISA. In kind it is cell-based, human. Particulars: HLA-A*0201, 9-mer peptides derived from INHBB; CTL lines/positive wells. Put shortly:
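CTLs expanded with MMC-inactivated B-lymphoblastoid lines, 40 ng/ml anti-CD3 and IL-2 (120 IU/ml day 1, then 30 IU/ml on days 5, 8, 11). Peptide-pulsed T2 or A24-LCL stimulators (1×10^4/well) incubated with cultured wells or limiting-dilution clones as responders; IFN-gamma detected by ELISPOT (positive wells) and ELISA (established CTL lines).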

On to VQCDSCQEL, for which the positive donor number in assay [1] is 0/1. In addition, the “positive CTL line” value in the assay on peptide-pulsed T2 cells is 0/1.

Values taken from US8759481B2, “Peptide vaccines for cancers expressing tumor-associated antigens” (Oncotherapy Science, Inc., priority 2007, dated 2014).
